The record followed here is patent EP0340778A2, “Prodrugs of 2',3'- Didehydro-2',3'-Dideoxynucleosides” (Bristol-Myers Squibb Company, priority 1988, dated 1989).

pIC50: −log10 of the molar value.

In the first assay the test system is HIV (LAV strain). Kind of assay: anti-HIV/LAV activity in cultures of CEM-F cells, p-24 gag protein enzyme capture assay (ELISA). The assay is classed as cell-based. The note with it: Human immunodeficiency virus 1, CCRF-CEM, 192 h, read-out: ID₅₀. How it is done:
The anti-HIV/LAV activity of several compounds representative of this invention and of d4T for comparison was measured in cultures of CEM-F cells. The CEM cells were infected with approximately 30 TCID₅₀ (50% tissue culture infectious dose) of HIV (LAV strain). The cells were then incubated for 45 min 37°C. The test compounds, in culture medium, were added at various concentrations to the infected cells and then incubated for a further 8 days. After 8 days the antiviral activity was evaluated in the culture media supernatant for p-24 gag protein by an enzyme capture assay (ELISA). The antiviral activity was expressed as the dose which inhibits 50% of the virus expression (ID₅₀ in µM) as detected by the assay described.
Turning to `Cc1cn(C2C=CC(COC(=O)c3ccccc3)O2)c(=O)[nH]c1=S` (stereo not drawn) [Example 8, 5′-O-Benzoyl-2′,3′-dihydro-2′,3′-dideoxy-4-thio-thymidine], the pIC50 was 6.30.

Turning to `Cc1cn([C@H]2C=C[C@@H](CO)O2)c(=O)[nH]c1=O` [d4T, 2′,3′-didehydro-2′,3′-dideoxythymidine, reference compound], the pIC50 was 6.70. As for `COCC(=O)OCC1C=CC(n2cc(C)c(=O)[nH]c2=O)O1` (stereo not drawn) [Example 3, 5′-O-Methoxyacetyl-2′,3′-didehydro-2′,3′-dideoxythymidine], the pIC50 is 6.40. Consider `CC(=O)OC[C@@H]1C=C[C@H](n2cc(C)c(=O)[nH]c2=O)O1` [Example 1, 5′-O-Acetyl-2′,3′-didehydro-2′,3′-dideoxythymidine], for which the pIC50 is 5.49. On the same count and under the same terms, to `Cc1cn([C@H]2C=C[C@@H](COC(=O)OC3CCCCC3)O2)c(=O)[nH]c1=O` [Example 6, 5′-O-Cyclohexyloxycarbonyl-2′,3′-didehydro-2′,3′-dideoxy-thymidine] belongs 6.22; to `COC(=O)OC[C@@H]1C=C[C@H](n2cc(C)c(=O)[nH]c2=O)O1` [Example 5, 5′-O-Methoxycarbonyl-2′,3′-didehydro-2′,3′-dideoxythymidine], 5.49.

As for `Cc1cn([C@H]2C=C[C@@H](COC(=O)C(C)(C)C)O2)c(=O)[nH]c1=O` [Example 4, 5′-O-Pivaloyl-2′,3′-didehydro-2′,3′-dideoxythymidine], the pIC50 was 5.32.

The same assay, now with this note: Human immunodeficiency virus 1, CCRF-CEM, 192 h; dose which inhibits 50% of the virus expression; CEM cells infected with approximately 30 TCID₅₀ of HIV (LAV strain); 8 days incubation with compound; p-24 gag protein in culture media supernatant; read-out: ID₅₀.
`O=C(OC[C@@H]1C=C[C@H](n2ccc(=S)[nH]c2=O)O1)c1ccccc1` [Example 11, 5′-O-Benzoyl-2′,3′-didehydro-2′,3′-dideoxy-4-thio-uridine]: the pIC50 is 6.30. Regarding `Nc1ccn([C@H]2C=C[C@@H](COC(=O)c3ccccc3)O2)c(=O)n1` [Example 12, 5′-O-Benzoyl-2′,3′-didehydro-2′,3′dideoxycytidine], the pIC50 is 7.00.
